Laboratory results as given in PubChem BioAssay (NCI).
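Five concentrations, 48 hours, 96-well plates. GI50 marks 50% less growth. TGI marks complete inhibition of growth.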

Legend:
Assay in all cases: growth of human tumour cells (NCI), 48 h
SNB-75 CNS = tested on: SNB-75 CNS
MDA-MB-435 = tested on: MDA-MB-435
EKVX NSCLC = tested on: EKVX NSCLC
M14 melanoma = tested on: M14 melanoma
U251 CNS = tested on: U251 CNS
A498 renal = tested on: A498 renal
HL-60(TB) leukemia = tested on: HL-60(TB) leukemia
COLO 205 colon = tested on: COLO 205 colon
SR leukemia = tested on: SR leukemia
NCI-H522 lung = tested on: NCI-H522 lung
HOP-92 NSCLC = tested on: HOP-92 NSCLC
DU-145 prostate = tested on: DU-145 prostate
NCI-H460 lung = tested on: NCI-H460 lung
MCF7 breast = tested on: MCF7 breast
786-0 renal = tested on: 786-0 renal
MALME-3M melanoma = tested on: MALME-3M melanoma
TK-10 renal = tested on: TK-10 renal
HT29 colon = tested on: HT29 colon
HOP-62 NSCLC = tested on: HOP-62 NSCLC
HCC-2998 colon = tested on: HCC-2998 colon
UACC-257 melanoma = tested on: UACC-257 melanoma
SW-620 colon = tested on: SW-620 colon
NCI-H23 lung = tested on: NCI-H23 lung
BT-549 breast = tested on: BT-549 breast
HS 578T breast = tested on: HS 578T breast
T-47D breast = tested on: T-47D breast
NCI-H226 lung = tested on: NCI-H226 lung
RXF 393 renal = tested on: RXF 393 renal
A549 NSCLC = tested on: A549 NSCLC
PC-3 prostate = tested on: PC-3 prostate
SK-MEL-5 melanoma = tested on: SK-MEL-5 melanoma
LOX IMVI melanoma = tested on: LOX IMVI melanoma
OVCAR-5 ovarian = tested on: OVCAR-5 ovarian
SF-295 CNS = tested on: SF-295 CNS
HCT-15 colon = tested on: HCT-15 colon
OVCAR-8 ovarian = tested on: OVCAR-8 ovarian
MDA-MB-231 breast = tested on: MDA-MB-231 breast
UACC-62 melanoma = tested on: UACC-62 melanoma
OVCAR-3 ovarian = tested on: OVCAR-3 ovarian
OVCAR-4 ovarian = tested on: OVCAR-4 ovarian
SF-268 CNS = tested on: SF-268 CNS
MOLT-4 leukemia = tested on: MOLT-4 leukemia
SK-OV-3 ovarian = tested on: SK-OV-3 ovarian
IGROV1 ovarian = tested on: IGROV1 ovarian
SK-MEL-2 melanoma = tested on: SK-MEL-2 melanoma
HCT-116 colon = tested on: HCT-116 colon
CAKI-1 renal = tested on: CAKI-1 renal
SK-MEL-28 melanoma = tested on: SK-MEL-28 melanoma
SF-539 CNS = tested on: SF-539 CNS
RPMI-8226 leukemia = tested on: RPMI-8226 leukemia
NCI/ADR-RES ovarian = tested on: NCI/ADR-RES ovarian
SN12C renal = tested on: SN12C renal
CCRF-CEM leukemia = tested on: CCRF-CEM leukemia
SNB-19 CNS = tested on: SNB-19 CNS
K-562 leukemia = tested on: K-562 leukemia
KM12 colon = tested on: KM12 colon
UO-31 renal = tested on: UO-31 renal
ACHN renal = tested on: ACHN renal

SMILES: N#Cc1c(-c2ccc(Cl)cc2)cc(-c2cc(O)ccc2O)nc1N
- GI50 (SNB-75 CNS): 914 nM
- TGI (SNB-75 CNS): 4040 nM
- GI50 (MDA-MB-435): 686 nM
- TGI (MDA-MB-435): 2740 nM
- GI50 (EKVX NSCLC): 2770 nM
- TGI (EKVX NSCLC): > 62900 nM
- GI50 (M14 melanoma): 1230 nM
- TGI (M14 melanoma): 5630 nM
- GI50 (U251 CNS): 669 nM
- TGI (U251 CNS): 2410 nM
- GI50 (A498 renal): 1410 nM
- TGI (A498 renal): 6140 nM
- GI50 (HL-60(TB) leukemia): 7640 nM
- TGI (HL-60(TB) leukemia): > 87900 nM
- GI50 (COLO 205 colon): 22400 nM
- TGI (COLO 205 colon): > 100000 nM
- GI50 (SR leukemia): 605 nM
- TGI (SR leukemia): > 100000 nM
- GI50 (NCI-H522 lung): 606 nM
- TGI (NCI-H522 lung): 2720 nM
- GI50 (HOP-92 NSCLC): 2390 nM
- TGI (HOP-92 NSCLC): 10800 nM
- GI50 (DU-145 prostate): 1250 nM
- TGI (DU-145 prostate): 10500 nM
- GI50 (NCI-H460 lung): 935 nM
- TGI (NCI-H460 lung): 4870 nM
- GI50 (MCF7 breast): 566 nM
- TGI (MCF7 breast): > 32800 nM
- GI50 (786-0 renal): 2060 nM
- TGI (786-0 renal): 6490 nM
- GI50 (MALME-3M melanoma): 1540 nM
- TGI (MALME-3M melanoma): 4270 nM
- GI50 (TK-10 renal): 4080 nM
- TGI (TK-10 renal): 32800 nM
- GI50 (HT29 colon): 11700 nM
- TGI (HT29 colon): > 53300 nM
- GI50 (HOP-62 NSCLC): 908 nM
- TGI (HOP-62 NSCLC): 3500 nM
- GI50 (HCC-2998 colon): 1170 nM
- TGI (HCC-2998 colon): 3460 nM
- GI50 (UACC-257 melanoma): 1830 nM
- TGI (UACC-257 melanoma): 7440 nM
- GI50 (SW-620 colon): 773 nM
- TGI (SW-620 colon): 4680 nM
- GI50 (NCI-H23 lung): 1220 nM
- TGI (NCI-H23 lung): 5280 nM
- GI50 (BT-549 breast): 3410 nM
- TGI (BT-549 breast): 31200 nM
- GI50 (HS 578T breast): 1730 nM
- TGI (HS 578T breast): > 100000 nM
- GI50 (T-47D breast): 854 nM
- TGI (T-47D breast): 5640 nM
- GI50 (NCI-H226 lung): 2540 nM
- TGI (NCI-H226 lung): 9870 nM
- GI50 (RXF 393 renal): 835 nM
- TGI (RXF 393 renal): 2720 nM
- GI50 (A549 NSCLC): 2330 nM
- TGI (A549 NSCLC): 13800 nM
- GI50 (PC-3 prostate): 1480 nM
- TGI (PC-3 prostate): > 33900 nM
- GI50 (SK-MEL-5 melanoma): 853 nM
- TGI (SK-MEL-5 melanoma): 2400 nM
- GI50 (LOX IMVI melanoma): 558 nM
- TGI (LOX IMVI melanoma): 1890 nM
- GI50 (OVCAR-5 ovarian): 5070 nM
- TGI (OVCAR-5 ovarian): 25700 nM
- GI50 (SF-295 CNS): 2940 nM
- TGI (SF-295 CNS): 9770 nM
- GI50 (HCT-15 colon): 4740 nM
- TGI (HCT-15 colon): > 52800 nM
- GI50 (OVCAR-8 ovarian): 1370 nM
- TGI (OVCAR-8 ovarian): 4930 nM
- GI50 (MDA-MB-231 breast): 1250 nM
- TGI (MDA-MB-231 breast): 5090 nM
- GI50 (UACC-62 melanoma): 1450 nM
- TGI (UACC-62 melanoma): 3990 nM
- GI50 (OVCAR-3 ovarian): 472 nM
- TGI (OVCAR-3 ovarian): 1510 nM
- GI50 (OVCAR-4 ovarian): 576 nM
- TGI (OVCAR-4 ovarian): 2200 nM
- GI50 (SF-268 CNS): 825 nM
- TGI (SF-268 CNS): 7150 nM
- GI50 (MOLT-4 leukemia): 666 nM
- TGI (MOLT-4 leukemia): 5020 nM
- GI50 (SK-OV-3 ovarian): 2420 nM
- TGI (SK-OV-3 ovarian): 6340 nM
- GI50 (IGROV1 ovarian): 1240 nM
- TGI (IGROV1 ovarian): 4770 nM
- GI50 (SK-MEL-2 melanoma): 2600 nM
- TGI (SK-MEL-2 melanoma): 9160 nM
- GI50 (HCT-116 colon): 553 nM
- TGI (HCT-116 colon): > 34000 nM
- GI50 (CAKI-1 renal): 2980 nM
- TGI (CAKI-1 renal): 19100 nM
- GI50 (SK-MEL-28 melanoma): 1760 nM
- TGI (SK-MEL-28 melanoma): 4230 nM
- GI50 (SF-539 CNS): 981 nM
- TGI (SF-539 CNS): 3290 nM
- GI50 (RPMI-8226 leukemia): 3200 nM
- TGI (RPMI-8226 leukemia): > 100000 nM
- GI50 (NCI/ADR-RES ovarian): 8800 nM
- TGI (NCI/ADR-RES ovarian): > 100000 nM
- GI50 (SN12C renal): 1170 nM
- TGI (SN12C renal): 5630 nM
- GI50 (CCRF-CEM leukemia): 1230 nM
- TGI (CCRF-CEM leukemia): > 100000 nM
- GI50 (SNB-19 CNS): 1290 nM
- TGI (SNB-19 CNS): > 45300 nM
- GI50 (K-562 leukemia): 402 nM
- TGI (K-562 leukemia): > 100000 nM
- GI50 (KM12 colon): 2000 nM
- TGI (KM12 colon): 14900 nM
- GI50 (UO-31 renal): 5120 nM
- TGI (UO-31 renal): 23600 nM
- GI50 (ACHN renal): 1890 nM
- TGI (ACHN renal): 12200 nM
